The record followed here is PubChem BioAssay (NCI).

Holding throughout (assay): NCI anticancer screen, dose series, 48 h
The test system of assay [1] is SN12C renal.
Assay [2] concerns NCI-H23 lung.
Assay [3] deals with K-562 leukemia.
Assay [4] relates to U251 CNS.
Assay [5] relates to SF-295 CNS.
The test system of assay [6] is A498 renal.
The test system of assay [7] is UO-31 renal.
Assay [8] concerns MOLT-4 leukemia.
The subject of assay [9] is RPMI-8226 leukemia.
Assay [10] has as its system EKVX NSCLC.
In assay [11] the test system is SF-268 CNS.
Assay [12] has as its system NCI-H460 lung.
For assay [13], the system named is UACC-62 melanoma.
Assay [14] relates to HCT-116 colon.
The test system of assay [15] is SR leukemia.
Assay [16] has as its system MDA-MB-231 breast.

Each structure is given as a SMILES string.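 Where inhibition never reached the appropriate level, the endpoint shown equals the highest concentration tested. Otherwise, values were interpolated linearly from a five-concentration, 48-hour dose response in 96-well plates. GI50: concentration for 50% inhibition of growth. At the TGI there is no net growth.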

Turning to `COc1ccc(C[C@@H]2Cc3cc(OC)c(OC)cc3CN2C)cc1`, the TGI in [1], in assay [2], in [3], in [4], in [5] and in assay [6] was more than 100 µM in each case. In addition, the TGI in [7], in assay [8], in assay [9], in assay [10], in [11] and in assay [12] was more than 100 µM each time.
As to `O=S1(=O)OCCOS(=O)(=O)C1I`, the TGI in assay [1], in [2], in assay [3], in [13], in [5] and in assay [6] was more than 100 µM throughout. The TGI in assay [7], in assay [8], in [9], in assay [10], in assay [14] and in assay [11] was more than 100 µM throughout. Further, the TGI in [15] was more than 100 µM.
Regarding `COc1c(C)c(C/C=C(\C)CCCCO[Si](C(C)C)(C(C)C)C(C)C)c(OC)c2ccccc12`, the TGI in assay [1], in assay [2], in assay [3], in assay [4], in assay [13] and in assay [5] was more than 100 µM throughout. Besides, the TGI in assay [7], in assay [8], in assay [10], in assay [14], in [16] and in assay [11] was more than 100 µM each time. Further, the TGI in assay [15] and in assay [12] was more than 100 µM throughout.
On to `O=C1CCCCC1CN1CCCC1` (stereo not given), for which the TGI in assay [1], in [2], in [3], in [4], in [5] and in assay [6] was more than 100 µM throughout. Also, the TGI in assay [8], in assay [9], in [10], in assay [14], in assay [11] and in assay [15] was more than 100 µM each time. In addition, in assay [12], the TGI was more than 100 µM.
`COc1cccc(-c2cc(=O)c3cc(OC)c(OC)cc3[nH]2)c1`: the TGI in assay [1], in assay [2], in assay [3], in assay [4], in assay [13] and in [5] was more than 100 µM in each case. Moreover, the TGI in assay [7], in [8], in assay [9], in [10], in assay [14] and in assay [11] was more than 100 µM each time. Further, the TGI in assay [15] and in assay [12] was more than 100 µM throughout. Further, the results for the GI50 in assay [5], in assay [14] and in assay [11] were 40.3 µM, 59.2 µM and 49.6 µM, respectively.
In the case of `OC12c3ccccc3C1(N1CCOCC1)CCCCC21OCCCO1` (stereo not given), the TGI in assay [1], in [2], in [3], in assay [4], in [13] and in [5] was more than 100 µM each time. The TGI in assay [6], in assay [8], in [9], in assay [14], in [11] and in [12] was more than 100 µM each time.
With `C/C(=N\NS(=O)(=O)c1ccc(C)cc1)C(CN1CCOCC1)C(c1ccccc1)c1c(O)c2ccccc2oc1=O` (stereo not given), the TGI in [1], in [2], in assay [3], in assay [4], in assay [13] and in assay [5] was more than 100 µM throughout. In addition, the TGI in [6], in assay [7], in assay [9], in assay [10], in assay [14] and in assay [11] was more than 100 µM each time. The figures for the TGI in [15] and in assay [12] were 56.2 µM and more than 100 µM, respectively.
For `COC(=O)c1ccc(OCc2ccc3nc(OC)c(OC)nc3c2)cc1`, the TGI in assay [1], in assay [2], in assay [3], in [4], in assay [5] and in assay [7] was more than 100 µM in each case. In addition, the TGI in assay [9], in [10], in assay [14], in assay [11], in assay [15] and in assay [12] was more than 100 µM throughout.
On to `CCN1CCC(O)(c2ccc(C)cc2)C(C(=O)c2ccc(C)cc2)C1` (stereo not given), for which the TGI in assay [1] is 19.8 µM; in assay [2], more than 55.1 µM; in assay [3], more than 100 µM; in assay [4], more than 83.9 µM; in assay [13], more than 60 µM; in [5], more than 100 µM. The TGI in [6] was more than 100 µM; in assay [7], more than 57.5 µM; in [8], more than 71.5 µM; in [9], 41.5 µM; in assay [10], 36.1 µM; in assay [14] it was 30.3 µM. For the same compound, the TGI was more than 71.8 µM in assay [11], 50.9 µM in assay [15] and more than 81.1 µM in assay [12].
As to `N#Cc1ccc(Oc2nc3ccccc3nc2-c2ccccc2)cc1`, the TGI in assay [1], in [2], in assay [3], in [4], in assay [13] and in assay [5] was more than 100 µM in each case. For the same compound, the TGI in [6], in [7], in [8], in [9], in assay [10] and in assay [14] was more than 100 µM each time. Besides, the TGI in assay [16], in [11] and in assay [12] was more than 100 µM throughout.
For the compound `COc1ccc2c(c1)c(=O)c1ccccc1n2/C=C/C(=O)O`, the TGI in assay [1], in assay [2], in assay [3], in assay [4], in [13] and in assay [5] was more than 100 µM each time. The TGI in assay [6], in assay [7], in assay [8], in [9], in [10] and in assay [14] was more than 100 µM in each case. Moreover, the TGI in assay [11] was more than 100 µM; in [15] it was more than 57.4 µM; in assay [12], more than 100 µM.
Turning to `Cc1nc2c(n1CCO)C(=O)c1ccccc1C2=O`, the TGI in assay [1] was more than 100 µM; in assay [2], 30.8 µM; in assay [3], 58.3 µM; in [4], 91.8 µM; in [13], 30.9 µM; in assay [5] it was more than 100 µM. Moreover, the TGI in assay [7] is more than 100 µM; in assay [8], more than 100 µM; in assay [10] it was more than 100 µM; in assay [14], 43 µM; in [11], more than 100 µM; in assay [15], more than 100 µM. In addition, the TGI in assay [12] was more than 100 µM.
With `COc1ccc(N2C(=O)C3c4[nH]c5ccccc5c4C4CCCCCCCCCCC4C3C2=O)cc1` (stereo not given), the TGI was 19.9 µM in assay [1]; more than 33.1 µM in assay [2]; more than 78.3 µM in [3]; 22.4 µM in assay [4]; more than 52.6 µM in [13]; 39.4 µM in assay [5]. The TGI in assay [6] was 25.5 µM; in assay [7], more than 59.8 µM; in assay [8], 37.4 µM; in assay [9] it was 43.2 µM; in [10], more than 52.8 µM; in [14], 15.6 µM. For the same compound, the TGI in [11] was more than 30.5 µM; in [15], more than 20.3 µM; in assay [12], 19.5 µM.
As to `C[C@H]1O[C@@H](c2c(O)ccc3ccccc23)C[C@@H](N(C)C)C1O` (stereo not given in full), the TGI in assay [1], in assay [2], in [3], in assay [4], in assay [13] and in [5] was more than 100 µM throughout. Moreover, the TGI in [6], in assay [7], in [10], in [14], in assay [16] and in assay [11] was more than 100 µM throughout. In [12], this compound registered a TGI of more than 100 µM.
Regarding `CN(C)c1ccc(-c2cc(=O)c3cc4c(cc3[nH]2)OCO4)cc1`, the TGI in assay [1], in [2], in assay [3], in assay [4], in assay [13] and in [5] was more than 100 µM each time. Also, the TGI in assay [6], in assay [7], in [8], in assay [9], in assay [10] and in assay [14] was more than 100 µM throughout. The TGI in assay [11], in assay [15] and in assay [12] was more than 100 µM throughout.
On to `CC(=O)c1cccc(NC(=O)/C(=N\NC(C)(C)C)c2c(O)c3ccccc3oc2=O)c1`, for which the TGI in assay [1], in assay [2], in assay [13], in assay [5], in assay [7] and in assay [8] was more than 100 µM throughout. Moreover, the TGI in assay [10], in assay [14], in assay [11], in assay [15] and in assay [12] was more than 100 µM each time.
With `COc1ccc(N2C(=O)C3c4[nH]c5ccc(OC)cc5c4C4CCC(C(C)(C)C)CC4C3C2=O)cc1` (stereo not given), the TGI in assay [1] is more than 100 µM; in assay [2], 80.8 µM; in assay [3], more than 100 µM; in assay [4], 44.8 µM; in assay [13], more than 100 µM; in [5] it was 32.8 µM. Moreover, the TGI was 49.3 µM in [6]; more than 100 µM in [7]; more than 100 µM in assay [8]; more than 100 µM in assay [9]; 92.3 µM in assay [10]; 26.1 µM in assay [14]. The TGI in assay [11], in assay [15] and in assay [12] was more than 100 µM each time.
On to `COc1cccc2c1CCc1ccccc1CC2=O`, for which the TGI in [1], in [2], in assay [3], in assay [4], in [13] and in assay [5] was more than 100 µM each time. Further, the TGI in assay [6], in assay [7], in [8], in assay [9], in assay [10] and in [14] was more than 100 µM throughout. For the same compound, the TGI in assay [11], in [15] and in assay [12] was more than 100 µM in each case.
Consider `COc1c(Cl)c2c(c(OC)c1OC)-c1ccc(OC)c(=O)c(Cl)c1C(NC(C)=O)CC2` (stereo not given), for which the TGI is more than 36.4 µM in assay [1]; more than 100 µM in [3]; 1.15 µM in assay [4]; 44.6 µM in assay [13]; 0.49 µM in assay [5]; 0.413 µM in assay [6]. The TGI in [7] is more than 100 µM; in assay [8], more than 100 µM; in [9], 10.3 µM; in [10], more than 100 µM; in [14], 0.322 µM; in assay [11] it was 3.57 µM. The TGI in [15] was more than 100 µM; in assay [12], 1.34 µM.
Consider `CNC(=O)CN(CC(=O)NC)C(=O)NC`, for which the TGI in assay [2], in [3], in assay [4], in [13], in assay [5] and in assay [6] was more than 100 µM in each case. The TGI in assay [7], in [8], in [9], in assay [10], in assay [11] and in assay [15] was more than 100 µM each time.
